Where two headings read alike, the source gives them in different places.
Experiments:
KM mice = assay: animal or person; format: in vivo; details: for duration and recovery time compared with remimazolam / effective dose compared with remimazolam: mice, tail vein, in words
SD rats = assay: animal or person; format: in vivo; details: for duration and recovery time compared with remimazolam / effective dose compared with remimazolam: rats, tail vein, in words
[1] = KM mice, single tail vein injection at 2×ED50, time from disappearance to recovery of righting reflex
[2] = KM mice, single tail vein injection at 2×ED50, time from recovery of righting reflex to free crawling
[3] = Mus musculus, KM mice (male, 18-22 g), injection via the tail vein, disappearance of righting reflex, read-out: ED50
[4] = Rattus norvegicus, SD rats (male, 220-300 g), injection via the tail vein, disappearance of righting reflex, read-out: ED50
[5] = SD rats, single tail vein injection at 2×ED50, time from disappearance to recovery of righting reflex
[6] = SD rats, single tail vein injection at 2×ED50, time from recovery of righting reflex to free crawling
[7] = KM mice (male, 18-22 g), injection via the tail vein, disappearance of righting reflex
[8] = SD rats (male, 220-300 g), injection via the tail vein, disappearance of righting reflex

Compound	2ED50 duration (KM mice; [1])	2ED50 recovery time (KM mice; [2])	Quality of recovery (KM mice; KM mice, tail vein injection)	ED50 (KM mice; [3])	ED50 (SD rats; [4])	2ED50 duration (SD rats; [5])	2ED50 recovery time (SD rats; [6])	Quality of recovery (SD rats; SD rats, tail vein injection)	also measured
CCOC(=O)COC(=O)CC[C@@H]1N=C(c2ccccn2)c2cccc(Cl)c2-n2c(C)cnc21 [Example 37]	4.42 min	1.58 min	++ (“++” means 1-3 min)	25.7 mg/kg	5.7 mg/kg	3.02 min	2.51 min	++ (“++” means 1-3 min)	
CCOC(CCC(C)(C)OC(=O)CC[C@@H]1N=C(c2ccccn2)c2cc(Br)cc(Cl)c2-n2c(C)cnc21)C(=O)OC (stereo partly drawn) [Example 65, Methyl 5-((3-((4S)-8-bromo-10-chloro-1-methyl-6-(pyridine-2-yl)-4H-benzo [f]imidazo[1,2-a][1,4]diazapin-4-yl)propionyl)oxy)-2-ethoxy-5-methylcaproate]	3.4 min	2.04 min	++ (“++” means 1-3 min)	31.2 mg/kg	6.3 mg/kg	3.25 min	2.29 min	++++ (“++++” means 5-10 min)	
COC(=O)C1(OC(=O)CC[C@@H]2N=C(c3ccccn3)c3cc(Cl)c(C(F)(F)F)cc3-n3c(C)cnc32)CC1 [Example 40]	4.26 min	1.55 min	++ (“++” means 1-3 min)			4.06 min	2.01 min	++ (“++” means 1-3 min)	ED50 (KM mice; [7]): 24.8 mg/kg; ED50 (SD rats; [8]): 6.8 mg/kg
COC(=O)COC(=O)CC[C@@H]1N=C(c2ccccn2)c2cc(Br)ccc2-n2c(C)cnc21 [Example 56, 2-Methoxy-2-oxoethyl-3-((4S)-8-bromo-1-methyl-6-(pyridine-2-yl)-4H-benzo[f]imidazo[1,2-a][1,4]diaza-4-ylpropionate]	4.08 min	1.20 min	++ (“++” means 1-3 min)	27.2 mg/kg	6.8 mg/kg	1.05 min	1.12 min	++ (“++” means 1-3 min)	
Cc1cnc2n1-c1cc(Br)c(Br)cc1C(c1ccccn1)=N[C@H]2CCC(=O)OCOC(=O)OC(C)C [Example 10]	5.12 min	2.06 min	+++ (“+++” means 3-5 min)	28.3 mg/kg	5.8 mg/kg	5.31 min	2.06 min	++ (“++” means 1-3 min)	
COC(=O)C(C)(C)OC(=O)CC[C@@H]1N=C(c2ccccn2)c2cc(Br)ccc2-n2c(C)cnc21 [Example 62, Methyl 2-((3-((4S)-8-bromo-1-methyl-6-(pyridine-2-yl)-4H-benzo[f]imidazo [1,2-a][1,4]diaza-4-yl)propionyl)oxy)-2-methylpropionate]	3.23 min	1.27 min	+++ (“+++” means 3-5 min)	13.5 mg/kg	1.3 mg/kg	1.08 min	2.14 min	+++ (“+++” means 3-5 min)	
(((((3-Methylbutane-2-yl)oxy)carbonyl)oxy) methyl 3-((4S)-9-bromo-8-fluoro-1-methyl-6- (pyridine-2-yl)-4H-benzo[f]imidazo [1,2-a][1,4]diaza-4-ylpropionate formate [Example 73]									2ED50 duration (KM mice; mouse, in vivo): 3.33 min; 2ED50 recovery time (KM mice; mouse, in vivo): 2.38 min; ED50 (KM mice; mouse, in vivo): 26.3 mg/kg; Quality of recovery (KM mice; mouse, in vivo): +++ (key: “+” means <1 mm; “++” means 1-3 min; “+++” means 3-5 min; “++++” means 5-10 min; “+++++” means >10 mm); 2ED50 duration (SD rats; rat, in vivo): 2.45 min; 2ED50 recovery time (SD rats; rat, in vivo): 2.44 min; ED50 (SD rats; rat, in vivo): 5.2 mg/kg; Quality of recovery (SD rats; rat, in vivo): ++ (key: “+” means <1 mm; “++” means 1-3 min; “+++” means 3-5 min; “++++” means 5-10 min; “+++++” means >10 mm)
CCOC(=O)COC(=O)CC[C@@H]1N=C(c2ccccn2)c2cc(Cl)c(OC(F)(F)F)cc2-n2c(C)cnc21 [Example 28]	0.52 min	0.58 min		9.5 mg/kg	4.5 mg/kg	0.58 min	0.33 min	+ (“+” means <1 min)	duration and recovery time compared with remimazolam (KM mice): significantly shorter; effective dose compared with remimazolam (KM mice): significantly lower; duration and recovery time compared with remimazolam (SD rats): significantly shorter; effective dose compared with remimazolam (SD rats): significantly lower
COC(=O)COC(=O)CC[C@@H]1N=C(c2ccccn2)c2cc(Br)c(Br)cc2-n2c(C)cnc21 [Example 20]	4.47 min	2.43 min	+++ (“+++” means 3-5 min)	31.4 mg/kg	4.7 mg/kg	3.47 min	2.49 min	++ (“++” means 1-3 min)	
CCOC(=O)C(C)OC(=O)CC[C@@H]1N=C(c2ccccn2)c2cc(Br)ccc2-n2c(C)cnc21 (some centres unmarked) [Example 61]	3.01 min	1.58 min	+++ (“+++” means 3-5 min)	29.9 mg/kg	2.7 mg/kg	1.21 min	2.01 min	++ (“++” means 1-3 min)	
CCCOC(=O)OCOC(=O)CC[C@@H]1N=C(c2ccccn2)c2cc(Br)ccc2-n2c(C)cnc21 [Example 47]	3.90 min	2.42 min	++++ (“++++” means 5-10 min)	27 mg/kg	6.2 mg/kg	4.07 min	2.38 min	++ (“++” means 1-3 min)	
CCOC(=O)COC(=O)CC[C@@H]1N=C(c2ccccn2)c2cc(Br)ccc2-n2c(C)cnc21 [Example 57, 2-Ethoxy-2-oxoethyl-3-((4S)-8-bromo-1-methyl-6-(pyridine-2-yl)-4H-benzo [f]imidazo[1,2-a][1,4]diaza-4-ylpropionate]	3.90 min	2.31 min		25 mg/kg	4.7 mg/kg	5.07 min	2.41 min	+ (“+” means <1 min)	duration and recovery time compared with remimazolam (KM mice): significantly shorter; effective dose compared with remimazolam (KM mice): significantly lower; duration and recovery time compared with remimazolam (SD rats): significantly shorter; effective dose compared with remimazolam (SD rats): significantly lower
CCC(CC)OC(=O)OCOC(=O)CC[C@@H]1N=C(c2ccccn2)c2cc(Br)c(Br)cc2-n2c(C)cnc21 [Example 12]	5.32 min	2.04 min	+++ (“+++” means 3-5 min)	31.3 mg/kg	5.7 mg/kg	5.24 min	2.04 min	++ (“++” means 1-3 min)	
Cc1cnc2n1-c1ccc(Br)cc1C(c1ccccn1)=N[C@H]2CCC(=O)OCOC(=O)OC(C)C(C)C (some centres unmarked) [Example 51]	>10 min	2.39 min	+++ (“+++” means 3-5 min)	27.8 mg/kg	6.5 mg/kg	3.09 min	2.32 min	+++ (“+++” means 3-5 min)	
Cc1cnc2n1-c1cc(Br)c(Cl)cc1C(c1ccncc1)=N[C@H]2CCC(=O)OCOC(=O)OC(C)(C)C [Example 33]	3.21 min	1.48 min	++ (“++” means 1-3 min)	21.2 mg/kg	6.2 mg/kg	3.51 min	2.38 min	+++ (“+++” means 3-5 min)	
CCOC(=O)COC(=O)CC[C@@H]1N=C(c2ccccn2)c2cc(Cl)ccc2-n2c(C)cnc21 [Example 38]	3.25 min	1.25 min	++ (“++” means 1-3 min)			4.05 min	2.55 min	++++ (“++++” means 5-10 min)	ED50 (KM mice; [7]): 25 mg/kg; ED50 (SD rats; [8]): 6.5 mg/kg
COC(=O)C(C)(C)OC(=O)CC[C@@H]1N=C(c2ccccn2)c2cc(Br)c(Cl)cc2-n2c(C)cnc21 [Example 24]	1.50 min	1.02 min		12 mg/kg	6.8 mg/kg	0.50 min	0.47 min	+ (“+” means <1 min)	duration and recovery time compared with remimazolam (KM mice): significantly shorter; effective dose compared with remimazolam (KM mice): significantly lower; duration and recovery time compared with remimazolam (SD rats): significantly shorter; effective dose compared with remimazolam (SD rats): significantly lower
COC(=O)C(C)OC(=O)CC[C@@H]1N=C(c2ccccn2)c2c(cc(Cl)c(Cl)c2Cl)-n2c(C)cnc21 (some centres unmarked) [Example 29]	4.59 min	2.48 min	+++ (“+++” means 3-5 min)	30.8 mg/kg	5.8 mg/kg	3.59 min	2.44 min	+++ (“+++” means 3-5 min)	
CCOC(=O)OCOC(=O)CC[C@@H]1N=C(c2ccccn2)c2cc(Br)c(Br)cc2-n2c(C)cnc21 [Example 9]	5.48 min	2.07 min	++++ (“++++” means 5-10 min)	31.6 mg/kg	5.6 mg/kg	4.12 min	2.57 min	+++ (“+++” means 3-5 min)	

Source: patent US12473291B2 (priority 2019, dated 2025)
